How the values were obtained:
[1] = test system: VEGF induced increases in intracellular calcium levels in HUVEC (human umbilical vein endothelial cells); experiment: VEGF Stimulated Ca++ Signal in vitro (FLIPR); type: cell-based; conditions: VEGF 5 ng/mL; for IC50: 0.01 to 10.0 μM
Procedure, shortened: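 IC50 values derive from % inhibition of the VEGF (5 ng/mL) calcium response, taken as max-min fluorescence at 516 nm in Fluo-4-loaded HUVEC. Compounds (0.1% DMSO final) were added 30 min before stimulation, at 10 μM or across 0.01–10.0 μM.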

[2] = target: T1, cytoplasmic domain of the human VEGF receptor (VEGFR-2) (Homo sapiens, UniProt P35968); experiment: KDR Assay; type: biochemical; conditions: His-VEGFR-2; 3.6 μM ATP
T1 construct: The cytoplasmic domain of the human VEGF receptor (VEGFR-2) was expressed as a Histidine-tagged fusion protein; Histidine tag
Procedure, shortened: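 IC50 taken from blank-corrected OD492 curves of an anti-phosphotyrosine peroxidase ELISA. Reaction: 10 min, 25 °C, 3.6 μM ATP, 50 mM Hepes pH 7.4 with 20 mM MgCl2, 0.1 mM MnCl2 and 5% DMSO, on poly-Glu-Tyr-coated wells, started with insect-cell-expressed His-VEGFR-2 cytoplasmic domain.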

T1 sequence (P35968 786-1356): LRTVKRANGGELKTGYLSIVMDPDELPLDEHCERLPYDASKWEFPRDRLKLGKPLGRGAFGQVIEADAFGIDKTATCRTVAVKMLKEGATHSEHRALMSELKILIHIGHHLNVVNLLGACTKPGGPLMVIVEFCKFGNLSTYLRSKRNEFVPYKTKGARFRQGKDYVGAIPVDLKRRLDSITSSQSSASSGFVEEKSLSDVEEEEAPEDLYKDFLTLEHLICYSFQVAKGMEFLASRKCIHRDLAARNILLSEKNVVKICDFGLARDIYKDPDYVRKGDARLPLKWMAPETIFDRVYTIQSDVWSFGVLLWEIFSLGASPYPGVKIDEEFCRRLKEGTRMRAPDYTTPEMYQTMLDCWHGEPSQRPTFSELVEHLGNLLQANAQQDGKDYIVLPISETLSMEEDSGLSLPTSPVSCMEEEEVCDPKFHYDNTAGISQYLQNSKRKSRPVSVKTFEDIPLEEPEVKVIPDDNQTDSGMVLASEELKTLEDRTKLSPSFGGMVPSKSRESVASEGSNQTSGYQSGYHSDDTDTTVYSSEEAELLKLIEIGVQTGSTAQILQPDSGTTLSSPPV

| IC50 [2] [nM] | SMILES | inhibition at 10 µM ([1]; Homo sapiens) [%] | IC50 ([1]; Homo sapiens) [nM] | IC50 [1] [nM] |
| --- | --- | --- | --- | --- |
| 300 | O=C(O)CCCc1ccc(NC=C2C(=O)Nc3ccc(Cl)cc32)cc1 [Example 150, 4-{4-[(5-Chloro-2-oxo-1,2-dihydro-indol-3-ylidenemethyl)-amino]-phenyl}-butyric acid] | 90.9 | 1850 |  |
| 460 | CCc1ccc(NC=C2C(=O)Nc3cccc(C)c32)cc1 [Example 151, 3-[(4-Ethyl-phenylamino)-methylene]-4-methyl-1,3-dihydro-indol-2-one] | 50.8 |  |  |
| 390 | O=C1Nc2ccccc2C1=CNc1ccc(N2CCCCC2)cc1 [Example 158, 3-[(4-Piperidin-1-yl-phenylamino)-methylene]-1,3-dihydro-indol-2-one] | 97.5 | 1140 |  |
| 700 | CCN(CC)Cc1cc(NC=C2C(=O)Nc3ccccc32)ccc1O [Example 160, 3-[(3-Diethylaminomethyl-4-hydroxy-phenylamino)-methylene]-1,3-dihydro-indol-2-one] | 91.4 | 1290 |  |
| 300 | O=C1Nc2ccc(F)cc2C1=CNc1ccc2[nH]ccc2c1 [Example 162, 5-Fluoro-3-[(1 h-indol-5-ylamino)-methylene]-1,3-dihydro-indol-2-one] | 89.9 | 1050 |  |
| 320 | O=C1Nc2ccc(F)cc2C1=CNc1ccc2cn[nH]c2c1 [Example 163, 5-Fluoro-3-[(1 h-indazol-6-ylamino)-methylene]-1,3-dihydro-indol-2-one] | 95.3 | ≤ 1000 | 850 |
| 380 | COc1ccc(NC=C2C(=O)Nc3ccc(F)cc32)cc1O [Example 164, 5-Fluoro-3-[(3-hydroxy-4-methoxy-phenylamino)-methylene]-1,3-dihydro-indol-2-one] | 98.8 |  |  |
| 360 | O=C(O)CCc1ccc(NC=C2C(=O)Nc3ccc(F)cc32)cc1 [Example 165, 3-{4-[(5-Fluoro-2-oxo-1,2-dihydro-indol-3-ylidenemethyl)-amino]-phenyl}-propionic acid] | 99.3 | 1340 |  |
| 660 | NS(=O)(=O)c1ccc(NC=C2C(=O)Nc3ccc(F)cc32)cc1 [Example 166, 4-[(5-Fluoro-2-oxo-1,2-dihydro-indol-3-ylidenemethyl)-amino]-benzenesulfonamide] | 49.2 |  |  |
| 140 | CN1CCN(c2ccc(NC=C3C(=O)Nc4ccc(F)cc43)cc2)CC1 [Example 168, 5-Fluoro-3-{[4-(4-methyl-piperazin-1-yl)-phenylamino]-methylene}-1,3-dihydro-indol-2-one] | 94.3 |  |  |
| 610 | O=C1Nc2ccc(F)cc2C1=CNc1ccccc1 [Example 169, 5-Fluoro-3-phenylaminomethylene-1,3-dihydro-indol-2-one] | 93.4 | 1160 |  |
| 410 | NC(=O)c1ccc(NC=C2C(=O)Nc3ccc(F)cc32)cc1 [Example 170, 4-[(5-Fluoro-2-oxo-1,2-dihydro-indol-3-ylidenemethyl)-amino]-benzamide] | 96.7 | ≤ 1000 | 590 |
| 430 | CSc1ccc(NC=C2C(=O)Nc3ccc(F)cc32)cc1 [Example 171, 5-Fluoro-3-[(4-methylsulfanyl-phenylamino)-methylene]-1,3-dihydro-indol-2-one] | 38.1 |  |  |
| 690 | COc1ccc(NC=C2C(=O)Nc3ccc(F)cc32)cc1F [Example 172, 5-Fluoro-3-[(3-fluoro-4-methoxy-phenylamino)-methylene]-1,3-dihydro-indol-2-one] | 93.3 | 1400 |  |
| 520 | O=C1Nc2ccc(F)cc2C1=CNc1ccc2ncsc2c1 [Example 173, 3-(Benzothiazol-6-ylaminomethylene)-5-fluoro-1,3-dihydro-indol-2-one] | 94.5 | 1480 |  |
| 840 | O=C(O)Cc1ccc(NC=C2C(=O)Nc3ccc(F)cc32)cc1 [Example 174, {4-[(5-Fluoro-2-oxo-1,2-dihydro-indol-3-ylidenemethyl)-amino]-phenyl}-acetic acid] | 76.4 | 6020 |  |
| 710 | O=C(O)CCc1cccc(NC=C2C(=O)Nc3ccc(F)cc32)c1 [Example 175, 3-{3-[(5-Fluoro-2-oxo-1,2-dihydro-indol-3-ylidenemethyl)-amino]-phenyl}-propionic acid] | 38 |  |  |

| IC50 [2] [nM] | SMILES | inhibition at 10 µM ([1]; Homo sapiens) [%] | IC50 ([1]; Homo sapiens) [nM] | IC50 [1] [nM] |
| --- | --- | --- | --- | --- |
| 800 | CCc1cccc(NC=C2C(=O)Nc3ccc(F)cc32)c1 [Example 176, 3-[(3-Ethyl-phenylamino)-methylene]-5-fluoro-1,3-dihydro-indol-2-one] | 67.9 | 2540 |  |
| 750 | O=C1Nc2ccc(F)cc2C1=CNc1cccc(O)c1 [Example 177, 5-Fluoro-3-[(3-hydroxy-phenylamino)-methylene]-1,3-dihydro-indol-2-one] | 98.2 | ≤ 1000 | 740 |
| 530 | O=C1Nc2ccc(F)cc2C1=CNc1ccc(CO)cc1 [Example 178, 5-Fluoro-3-[(4-hydroxymethyl-phenylamino)-methylene]-1,3-dihydro-indol-2-one] | 98.8 | 1060 |  |
| 440 | Nc1ccc(NC=C2C(=O)Nc3ccccc32)cc1 [Example 180, 3-[(4-Amino-phenylamino)-methylene]-1,3-dihydro-indol-2-one] | 98.3 | 1030 |  |
| 1650 | CC(O)c1cccc(NC=C2C(=O)Nc3ccccc32)c1 (centres unmarked) [Example 182, 3-{[3-(1-Hydroxy-ethyl)-phenylamino]-methylene}-1,3-dihydro-indol-2-one] | 99.3 | 950 |  |
| 520 | Cc1cccc2c1C(=CNc1cccc(C(C)O)c1)C(=O)N2 (centres unmarked) [Example 183, 3-{[3-(1-Hydroxy-ethyl)-phenylamino]-methylene}-4-methyl-1,3-dihydro-indol-2-one] | 98.9 | ≤ 1000 | 750 |
| 610 | O=C1Nc2ccccc2C1=CNc1cccc(CO)c1 [Example 184, 3-[(3-Hydroxymethyl-phenylamino)-methylene]-1,3-dihydro-indol-2-one] | 98.2 | 1560 |  |
| 330 | Cc1cccc2c1C(=CNc1cccc(CO)c1)C(=O)N2 [Example 185, 3-[(3-Hydroxymethyl-phenylamino)-methylene]-4-methyl-1,3-dihydro-indol-2-one] | 98.4 | ≤ 1000 | 870 |
| 890 | CC(C)(C)OC(=O)Nc1ccc(NC=C2C(=O)Nc3ccccc32)cc1 [Example 186, {4-[(2-Oxo-1,2-dihydro-indol-3-ylidenemethyl)-amino]-phenyl}-carbamic acid tert-butyl ester] | 99 | 1920 |  |
| 270 | Cc1cccc2c1C(=CNc1ccc(NC(=O)OC(C)(C)C)cc1)C(=O)N2 [Example 187, {4-[(4-Methyl-2-oxo-1,2-dihydro-indol-3-ylidenemethyl)-amino]-phenyl}-carbamic acid tert-butyl ester] | 96.8 | 1670 |  |
| 180 | CCN(CC)c1ccc(NC=C2C(=O)Nc3ccccc32)cc1 [Example 188, 3-[(4-Diethylamino-phenylamino)-methylene]-1,3-dihydro-indol-2-one] | 98 | ≤ 1000 | 530 |
| 70 | CCN(CC)c1ccc(NC=C2C(=O)Nc3cccc(C)c32)cc1 [Example 189, 3-[(4-Diethylamino-phenylamino)-methylene]-4-methyl-1,3-dihydro-indol-2-one] | 98.2 |  |  |
| 6960 | O=C1Nc2ccccc2C1=CNc1cccc(S(=O)(=O)N(CCO)CCO)c1 [Example 190, N,N-Bis-(2-hydroxy-ethyl)-3-[(2-oxo-1,2-dihydro-indol-3-ylidenemethyl)-amino]-benzenesulfonamide] | 54.1 | 9990 |  |
| 700 | Cc1cccc2c1C(=CNc1cccc(S(=O)(=O)N(CCO)CCO)c1)C(=O)N2 [Example 191, N,N-Bis-(2-hydroxy-ethyl)-3-[(4-methyl-2-oxo-1,2-dihydro-indol-3-ylidenemethyl)-amino]-benzenesulfonamide] | 98.7 | 2410 |  |
| 590 | O=C1Nc2ccccc2C1=CNc1ccc(S(=O)(=O)NCCO)cc1 [Example 192, N-(2-Hydroxy-ethyl)-4-[(2-oxo-1,2-dihydro-indol-3-ylidenemethyl)-amino]-benzenesulfonamide] | 98.7 | 1530 |  |
| 2470 | O=C1Nc2ccccc2C1=CNc1cccc(S(=O)(=O)NCCCO)c1 [Example 193, N-(3-Hydroxy-propyl)-3-[(2-oxo-1,2-dihydro-indol-3-ylidenemethyl)-amino]-benzenesulfonamide] | 81.5 | 4770 |  |

— patent US20030225152A1, “3-(Arylamino)methylene-1, 3-dihydro-2h-indol-2-ones as kinase inhibitors” (priority 2001, published 2003)
